Type in all cases: biochemical
In test [1] the target is T1, porcine pancreatic elastase (Sus scrofa, UniProt P00772).
T1 construct: purchased Sigma, USA
In words: Inhibition of porcine pancreatic elastase (hydrolysis of MeOSuc-AAA-pNA). The note with it: for hNE/PPE selectivity: ratio of PPE IC50 to hNE IC50; for IC50: substrate MeOSuc-AAA-pNA 1 mM, enzyme 15 nM, 37° C., pH8, read-out: Porcine pancreatic elastase (PPE) IC50. On the procedure:
2.3 Inhibition of Porcine Pancreatic Elastase
The ability of the peptides of the invention to inhibit the hydrolysis activity of porcine pancreatic elastase (Sigma, USA) using the synthetic tripeptidic substrate MeOSuc-AAA-pNA (Bachem, Switzerland) was determined as follows:
The above substrate (1 mM) and […] porcine pancreatic elastase (15 nM) were incubated at 37° C. with serial dilutions of the peptides (0.5% DMSO final) in assay buffer (50 mM Tris, pH8, 100 mM NaCl, 0.01% Tween20). The release of pNA was followed by monitoring the change in absorbance at 405 nm for 30 minutes. Control assays with the same assay set-up as above, but without peptide, ran linearly. The dose-response data were fitted to the 4-parameter Hill equation providing the IC50 value using Graphpad (Prism 5).

The target of test [2] is T2, human neutrophil elastase (Homo sapiens, UniProt P08246).
T2 construct: purchased Serva Electrophoresis, Germany
T2 sequence (P08246 30-267): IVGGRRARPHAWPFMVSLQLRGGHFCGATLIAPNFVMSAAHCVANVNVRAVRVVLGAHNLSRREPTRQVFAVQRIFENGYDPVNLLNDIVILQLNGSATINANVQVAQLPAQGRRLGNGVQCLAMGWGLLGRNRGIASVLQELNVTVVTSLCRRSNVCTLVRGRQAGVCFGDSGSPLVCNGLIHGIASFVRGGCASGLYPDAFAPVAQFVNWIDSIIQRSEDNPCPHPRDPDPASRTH
In words: Inhibition of human neutrophil elastase (hydrolysis of MeOSuc-AAPV-pNA). The following applies: substrate MeOSuc-AAPV-pNA 0.3 mM, enzyme 10 nM, 37° C., pH 8; read-out: Human neutrophil elastase (hNE) IC50. On the procedure:
2.2 Inhibition of Human Neutrophil Elastase
The ability of the peptides of the invention to inhibit the hydrolysis activity of human neutrophil elastase (Serva Electrophoresis, Germany) using the synthetic tetrapeptidic substrate MeOSuc-AAPV-pNA (Bachem, Switzerland) was determined as follows:
The above substrate (0.3 mM) and human neutrophil elastase (10 nM) were incubated at 37° C. with serial dilutions of the peptides (1% DMSO final) in assay buffer (50 mM Tris, pH 8, 300 mM NaCl, 0.01% Tween20). The release of pNA was followed by monitoring the change in absorbance at 405 nm for 30 minutes. Control assays with the same assay set-up as above, but without peptide, ran linearly. The dose-response data were fitted to the 4-parameter Hill equation providing the IC50 value using Graphpad (Prism 5).

Test [3] has as its target T3, human proteinase 3 (Homo sapiens, UniProt P24158).
T3 construct: purchased Elastin Products Company, USA
T3 sequence (P24158 28-248): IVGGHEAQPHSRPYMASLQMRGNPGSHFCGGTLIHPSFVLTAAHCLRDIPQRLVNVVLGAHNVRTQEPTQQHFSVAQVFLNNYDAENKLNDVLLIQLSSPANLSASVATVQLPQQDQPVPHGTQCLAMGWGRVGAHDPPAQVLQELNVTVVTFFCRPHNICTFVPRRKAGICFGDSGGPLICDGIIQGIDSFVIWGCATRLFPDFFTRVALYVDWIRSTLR
In words: Inhibition of human proteinase 3 (substrate Boc-Ala-Ala-Nva-SBzl). The note with it: for hNE/hPr3 selectivity: ratio of hPr3 IC50 to hNE IC50; for IC50: substrate Boc-Ala-Ala-Nva-SBzl 1 mM, enzyme 10 nM, 37° C., pH7.4, read-out: Human proteinase 3 (hPr3) IC50. On the procedure:
2.4 Inhibition of Human Proteinase 3
The inactivation of human proteinase 3 (Elastin Products Company, USA) by the peptides of the invention using synthetic tripeptidic substrate Boc-Ala-Ala-Nva-SBzl (Elastin Products Company, USA) was determined as follows:
The above substrate (1 mM), 4,4′-dithiodipyridine (250 μM) and human proteinase 3 (10 nM) were incubated at 37° C. with serial dilutions of the peptides (0.5% DMSO final) in assay buffer (50 mM Tris, pH7.4, 150 mM NaCl, 0.01% Tween20). The reaction process was followed by monitoring the change in absorbance at 340 nm for 30 minutes. Control assays with the same assay set-up as above, but without peptide, ran linearly. The dose-response data were fitted to the 4-parameter Hill equation providing the IC50 value using Graphpad (Prism 5).

The results in this text go back to patent US10273267B2, “Beta-hairpin peptidomimetics as selective elastase inhibitors” (POLYPHOR AG, priority 2013, dated 2019).

Where a SMILES comes first, the peptide text is derived from it. [ ]: non-standard residue; d: D form. Gly(octyl) = CCCCCCCC[C@H](N)C(=O)O; hTyr = N[C@@H](CCc1ccc(O)cc1)C(=O)O; Aad = N[C@@H](CCCC(=O)O)C(=O)O; aThr = C[C@H](O)[C@H](N)C(=O)O; Pip = O=C(O)[C@@H]1CCCCN1; hSer = N[C@@H](CCO)C(=O)O

T1 sequence (P00772 27-266): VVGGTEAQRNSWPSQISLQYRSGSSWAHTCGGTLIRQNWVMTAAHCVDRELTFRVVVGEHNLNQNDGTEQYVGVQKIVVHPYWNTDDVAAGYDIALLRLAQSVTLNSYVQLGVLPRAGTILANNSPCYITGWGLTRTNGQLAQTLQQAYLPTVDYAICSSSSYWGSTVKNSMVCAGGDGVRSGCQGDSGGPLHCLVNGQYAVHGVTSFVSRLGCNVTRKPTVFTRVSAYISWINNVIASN

Usually IC50 stands for the concentration that gives 50% inhibition. Turning to `CCCCCCCC[C@@H]1NC(=O)[C@@H]2CCCN2C(=O)[C@H]2CCCN2C(=O)[C@H](CCCC(N)=O)NC(=O)[C@H](CCCCN)NC(=O)[C@H](CCC(N)=O)NC(=O)[C@@H]2CCCN2C(=O)[C@@H]2CCCN2C(=O)[C@H]([C@@H](C)CC)NC(=O)[C@H](CO)NC(=O)[C@H](C)NC(=O)[C@H]([C@@H](C)O)NC(=O)[C@H](CCC(=O)O)NC1=O` [Example 5, Cyclo(-OctGly-Glu-Thr-Ala-Ser-Ile-Pro-Pro-Gln-Lys-hGln-^DPro-Pro-)] (cyclo([Gly(octyl)]ETASIPPQK[Aad](NH2)[dP]P)), in test [1], the hNE/PPE selectivity worked out at 161 and the IC50 was found to be 1590 nM. The IC50 in test [2] worked out at 9.9 nM. In test [3], the hNE/hPr3 selectivity was 237 and the IC50 came out at 2350 nM.
In the same order, the values of `CCCCCCCC[C@@H]1NC(=O)[C@@H]2CCCN2C(=O)[C@H]2CCCN2C(=O)[C@H]([C@@H](C)O)NC(=O)[C@H](CCCCN)NC(=O)[C@H](CCC(N)=O)NC(=O)[C@@H]2CCCN2C(=O)[C@@H]2CCCN2C(=O)[C@H]([C@@H](C)CC)NC(=O)[C@H](CO)NC(=O)[C@H](C)NC(=O)[C@H]([C@@H](C)O)NC(=O)[C@H](Cc2ccccc2)NC1=O` [Example 13, Cyclo(-OctGly-Phe-Thr-Ala-Ser-Ile-Pro-Pro-Gln-Lys-Thr-^DPro-Pro-)] (cyclo([Gly(octyl)]FTASIPPQKT[dP]P)) are 2119, 21400 nM, 10.1 nM, greater than 9901 and greater than 100000 nM.
On to `CCCCCCCC[C@@H]1NC(=O)[C@H](CCCCN)NC(=O)[C@@H](CCCCN)NC(=O)[C@H]([C@@H](C)O)NC(=O)[C@H](CCCCN)NC(=O)[C@H](CCC(N)=O)NC(=O)[C@@H]2CCCN2C(=O)[C@@H]2CCCN2C(=O)[C@H]([C@@H](C)CC)NC(=O)[C@H](CO)NC(=O)[C@H](C)NC(=O)[C@H]([C@@H](C)O)NC(=O)[C@H](CCC(=O)O)NC1=O` [Example 28, Cyclo(-OctGly-Glu-Thr-Ala-Ser-Ile-Pro-Pro-GI n-Lys-Thr-^DLys-Lys-)] (cyclo([Gly(octyl)]ETASIPPQKT[dK]K)), for which the hNE/PPE selectivity in test [1] is greater than 8333. Further, the results for the IC50 in test [1], in test [2] and in test [3] were greater than 100000 nM, 12 nM and greater than 100000 nM, respectively. The hNE/hPr3 selectivity in test [3] is given as greater than 8333.
As for `CCCCCCCC[C@@H]1NC(=O)[C@H]2CCCN2C(=O)[C@H]2CCCN2C(=O)[C@H]([C@@H](C)O)NC(=O)[C@H](CCCCN)NC(=O)[C@H](CCC(N)=O)NC(=O)[C@@H]2CCCN2C(=O)[C@@H]2CCCN2C(=O)[C@H]([C@@H](C)CC)NC(=O)[C@H](CO)NC(=O)[C@H](C)NC(=O)[C@H]([C@@H](C)O)NC(=O)[C@H](CCC(=O)O)NC1=O` [Example 12, Cyclo(-OctGly-Glu-Thr-Ala-Ser-Ile-Pro-Pro-GI n-Lys-Thr-^DPro-^DPro-)] (cyclo([Gly(octyl)]ETASIPPQKT[dP][dP])), the hNE/PPE selectivity in test [1] was greater than 6579. The IC50 in test [1] was greater than 100000 nM; in test [2], 15.2 nM; in test [3], greater than 100000 nM. Further, the hNE/hPr3 selectivity in test [3] is recorded as greater than 6579.
On to `CCCCCCCC[C@@H]1NC(=O)[C@@H]2CCCN2C(=O)[C@H]2CCCN2C(=O)[C@H]([C@H](C)O)NC(=O)[C@H](CCCCN)NC(=O)[C@H](CCC(N)=O)NC(=O)[C@@H]2CCCN2C(=O)[C@@H]2CCCN2C(=O)[C@H]([C@@H](C)CC)NC(=O)[C@H](CO)NC(=O)[C@H](C)NC(=O)[C@H]([C@@H](C)O)NC(=O)[C@H](CCC(=O)O)NC1=O` [Example 3, Cyclo(-OctGly-Glu-Thr-Ala-Ser-Ile-Pro-Pro-Gln-Lys-alloThr-^DPro-Pro-)] (cyclo([Gly(octyl)]ETASIPPQK[aThr][dP]P)), for which, in test [1], the hNE/PPE selectivity came out at 209 and the IC50 was 1420 nM. In test [2], the IC50 came to 6.8 nM. Moreover, in test [3], the hNE/hPr3 selectivity came out at 149 and the IC50 came out at 1010 nM.
As to `CCCCCCCC[C@@H]1NC(=O)[C@@H]2CCCN2C(=O)[C@H]2CCCN2C(=O)[C@H](CCO)NC(=O)[C@H](CCCCN)NC(=O)[C@H](CCC(N)=O)NC(=O)[C@@H]2CCCN2C(=O)[C@@H]2CCCN2C(=O)[C@H]([C@@H](C)CC)NC(=O)[C@H](CO)NC(=O)[C@H](C)NC(=O)[C@H]([C@@H](C)O)NC(=O)[C@H](CCC(=O)O)NC1=O` [Example 4, Cyclo(-OctGly-Glu-Thr-Ala-Ser-Ile-Pro-Pro-Gln-Lys-hSer-^DPro-Pro-)] (cyclo([Gly(octyl)]ETASIPPQK[hSer][dP]P)), in test [1], the hNE/PPE selectivity is given as 157. The half-inhibitory concentration (IC50) is 1350 nM in test [1], 8.6 nM in test [2] and 1020 nM in test [3]. In test [3], the hNE/hPr3 selectivity was found to be 119.
In the same order, the values of `CCCCCCCC[C@@H]1NC(=O)[C@H](CCCCN)NC(=O)[C@@H](CO)NC(=O)[C@H]([C@@H](C)O)NC(=O)[C@H](CCCCN)NC(=O)[C@H](CCC(N)=O)NC(=O)[C@@H]2CCCN2C(=O)[C@@H]2CCCN2C(=O)[C@H]([C@@H](C)CC)NC(=O)[C@H](CO)NC(=O)[C@H](C)NC(=O)[C@H]([C@@H](C)O)NC(=O)[C@H](CCC(=O)O)NC1=O` [Example 32, Cyclo(-OctGly-Glu-Thr-Ala-Ser-Ile-Pro-Pro-GI n-Lys-Thr-^DSer-Lys-)] (cyclo([Gly(octyl)]ETASIPPQKT[dS]K)) are 4036, 90000 nM, 22.3 nM, greater than 100000 nM and greater than 4484.
In the same order, the values of `CCCCCCCC[C@@H]1NC(=O)[C@@H]2CCCN2C(=O)[C@H]2CCCN2C(=O)[C@H]([C@@H](C)O)NC(=O)[C@H](CCCCN)NC(=O)[C@H](CCC(N)=O)NC(=O)[C@@H]2CCCCN2C(=O)[C@@H]2CCCN2C(=O)[C@H]([C@@H](C)CC)NC(=O)[C@H](CO)NC(=O)[C@H](C)NC(=O)[C@H]([C@@H](C)O)NC(=O)[C@H](CCC(=O)O)NC1=O` [Example 45, Cyclo(-OctGly-Glu-Thr-Ala-Ser-Ile-Pro-Pip-Gln-Lys-Thr-^DPro-Pro-)] (cyclo([Gly(octyl)]ETASIP[Pip]QKT[dP]P)) are 324, 2300 nM, 7.1 nM, 900 nM and 127.
In the case of `CCCCCCCC[C@@H]1NC(=O)[C@@H]2CCCN2C(=O)[C@H]2CCCN2C(=O)[C@H](CO)NC(=O)[C@H](CCCCN)NC(=O)[C@H](CCC(N)=O)NC(=O)[C@@H]2CCCN2C(=O)[C@@H]2CCCN2C(=O)[C@H]([C@@H](C)CC)NC(=O)[C@H](CO)NC(=O)[C@H](C)NC(=O)[C@H]([C@@H](C)O)NC(=O)[C@H](CCc2ccc(O)cc2)NC1=O` [Example 47] (cyclo([Gly(octyl)][hTyr]TASIPPQKS[dP]P)), in test [1], the hNE/PPE selectivity was determined as 357 and the IC50 worked out at 500 nM. For the same molecule, the IC50 in test [2] was found to be 1.4 nM. In test [3], the hNE/hPr3 selectivity stood at 714 and the IC50 is 1000 nM.
